# What was measured:
# Experiment in all cases: relative viability (nuclei count vs DMSO), 5 days (fraction); higher = more cells survive
# Sulindac + Palbociclib = compound: CC1=C(CC(=O)O)c2cc(F)ccc2/C1=C\c1ccc([S+](C)[O-])cc1 [Sulindac] + CC(=O)c1c(C)c2cnc(Nc3ccc(N4CCNCC4)cn3)nc2n(C2CCCC2)c1=O [Palbociclib] (partner 0.5 µM)
# Summary of the method: (§1)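 Cells from lung cancer lines were seeded into 1536-well plates and, one day later, dosed by pin tool. Treatments were either a single drug or a fixed dose of an anchor drug with five library-drug doses (not always all listed) in √10 steps. After 5 days, nuclei were stained in a one-step fixation (final 0.05% Triton X-100, 1% formaldehyde, 1 ug/ml Hoechst) and counted on 4× images, and relative viability is the treated-to-vehicle nuclei ratio, as the median of duplicate plates.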
# [1] = compound: CN[C@@H]1C[C@H]2O[C@@](C)([C@@H]1OC)n1c3ccccc3c3c4c(c5c6ccccc6n2c5c31)C(=O)NC4 [Staurosporine] + N=C(N)NC(=N)NCCc1ccccc1 [Phenformin] (partner 250 µM)
# Summary of the method: as §1
# Staurosporine + Olaparib = compound: CN[C@@H]1C[C@H]2O[C@@](C)([C@@H]1OC)n1c3ccccc3c3c4c(c5c6ccccc6n2c5c31)C(=O)NC4 [Staurosporine] + O=C(c1cc(Cc2n[nH]c(=O)c3ccccc23)ccc1F)N1CCN(C(=O)C2CC2)CC1 [Olaparib] (partner 8 µM)
# Summary of the method: as §1
# [2] = compound: O=c1[nH]cc(F)c(=O)[nH]1 [5-Fluorouracil] + N=C(N)NC(=N)NCCc1ccccc1 [Phenformin] (partner 250 µM)
# Summary of the method: as §1
Cell Line,relative viability (Sulindac + Palbociclib; first compound 0.08 µM),relative viability (Sulindac + Palbociclib; first compound 0.253 µM),relative viability (Sulindac + Palbociclib; first compound 0.8 µM),relative viability (Sulindac + Palbociclib; first compound 2.53 µM),relative viability (Sulindac + Palbociclib; first compound 8 µM),relative viability ([1]; first compound 0.01581 µM),relative viability ([1]; first compound 0.05 µM),relative viability ([1]; first compound 0.1581 µM),relative viability ([1]; first compound 0.5 µM),relative viability (Staurosporine + Olaparib; first compound 0.005 µM),relative viability (Staurosporine + Olaparib; first compound 0.01581 µM),relative viability (Staurosporine + Olaparib; first compound 0.05 µM),relative viability (Staurosporine + Olaparib; first compound 0.1581 µM),relative viability (Staurosporine + Olaparib; first compound 0.5 µM),relative viability ([2]; first compound 0.02 µM),relative viability ([2]; first compound 0.2 µM),relative viability ([2]; first compound 0.6325 µM),relative viability ([2]; first compound 2 µM),relative viability ([1]; first compound 0.005 µM)
NCI-H2085,0.406,0.487,0.497,0.508,0.429,0.197,0.312,0.151,0.174,0.694,0.471,0.556,0.398,0.344,0.577,0.844,0.761,0.68,
PC-3 [JPC-3],0.477,0.521,0.596,0.502,0.545,0.394,0.352,0.247,0.181,1.03,0.603,0.569,0.385,0.332,0.48,0.476,0.496,0.45,
NCI-H838,0.262,0.234,0.195,0.226,0.223,0.139,0.136,0.125,0.0931,0.24,0.175,0.154,0.122,0.0873,0.544,0.609,0.364,0.245,0.208
NCI-H1755,0.479,0.48,0.517,0.495,0.504,0.24,0.196,0.195,0.161,0.731,0.421,0.25,0.236,0.234,0.667,0.598,0.364,0.256,0.384
NCI-H1650,0.271,0.331,0.341,0.346,0.315,0.147,0.109,0.108,0.0714,0.703,0.598,0.385,0.306,0.0918,0.396,0.444,0.273,0.279,0.217
NCI-H650,0.313,0.347,0.32,0.28,0.402,0.257,0.26,0.189,0.164,0.313,0.246,0.25,0.229,0.124,0.406,0.339,0.328,0.319,0.285
NCI-H1944,0.363,0.333,0.338,0.351,0.374,0.11,0.141,0.102,0.0775,0.38,0.226,0.284,0.273,0.261,0.195,0.208,0.157,0.135,0.19
LK-2,0.879,0.624,0.496,0.369,0.88,,,0.127,0.126,,0.432,0.518,0.289,0.0843,0.597,0.582,0.57,0.381,0.676
HCC-15,0.901,0.818,0.543,0.736,0.721,,0.19,0.112,0.0964,0.613,,0.532,0.286,0.205,0.563,0.532,0.332,0.27,0.344
PC-14,0.562,0.497,0.489,0.567,0.758,0.129,0.0894,0.0651,0.0636,0.147,0.0797,0.042,0.0556,0.043,0.572,0.682,0.558,0.585,0.26
HOP-62,0.495,0.553,0.469,0.525,0.541,0.232,0.133,0.102,0.1,0.441,0.157,0.0992,0.143,0.104,0.617,0.728,0.636,0.644,0.426
NCI-H322M,0.436,0.462,0.489,0.474,0.46,0.348,,0.289,0.248,0.831,0.691,0.556,0.411,0.345,0.857,0.743,0.724,0.541,
NCI-H1395,0.545,0.563,0.708,0.627,0.728,0.292,0.382,0.301,0.241,0.443,0.395,0.379,0.328,0.274,0.426,0.458,0.428,0.494,0.462
NCI-H661,0.405,0.433,0.458,0.376,0.449,0.235,0.27,0.19,0.131,0.65,0.556,0.521,0.333,0.175,0.274,,0.284,0.287,0.277
NCI-H727,0.621,0.643,0.566,0.627,0.667,0.319,0.379,0.219,0.146,0.638,0.422,0.413,0.434,0.419,0.532,0.472,0.489,0.495,0.404
NCI-H1734,0.298,0.345,0.311,0.32,0.402,0.179,0.153,0.116,0.107,0.566,0.354,0.257,0.194,0.0713,0.374,0.436,0.379,0.313,0.348
EKVX,0.396,0.35,0.31,0.339,0.465,0.119,0.159,0.142,0.118,0.562,0.392,0.272,0.216,0.13,0.18,0.179,0.13,0.134,0.172

Cell Line,relative viability (Sulindac + Palbociclib; first compound 0.08 µM),relative viability (Sulindac + Palbociclib; first compound 0.253 µM),relative viability (Sulindac + Palbociclib; first compound 0.8 µM),relative viability (Sulindac + Palbociclib; first compound 2.53 µM),relative viability (Sulindac + Palbociclib; first compound 8 µM),relative viability ([1]; first compound 0.01581 µM),relative viability ([1]; first compound 0.05 µM),relative viability ([1]; first compound 0.1581 µM),relative viability ([1]; first compound 0.5 µM),relative viability (Staurosporine + Olaparib; first compound 0.005 µM),relative viability (Staurosporine + Olaparib; first compound 0.01581 µM),relative viability (Staurosporine + Olaparib; first compound 0.05 µM),relative viability (Staurosporine + Olaparib; first compound 0.1581 µM),relative viability (Staurosporine + Olaparib; first compound 0.5 µM),relative viability ([2]; first compound 0.02 µM),relative viability ([2]; first compound 0.2 µM),relative viability ([2]; first compound 0.6325 µM),relative viability ([2]; first compound 2 µM),relative viability ([1]; first compound 0.005 µM)
LCLC-97TM1,0.201,0.244,0.203,0.212,0.277,0.171,0.184,0.158,0.149,0.42,0.12,0.194,0.236,0.191,0.386,0.472,0.443,0.407,0.212
COR-L23,0.325,0.268,0.233,0.275,0.334,0.18,0.14,0.0737,0.0585,0.216,0.189,0.164,0.141,0.0662,0.4,0.427,0.278,0.228,0.243
NCI-H1355,0.335,0.43,0.327,0.395,0.379,0.165,0.255,0.168,0.162,0.751,0.289,0.253,0.185,0.173,0.431,0.412,0.296,0.297,0.369
EPLC-272H,0.255,,0.323,0.305,0.318,0.0782,0.0721,0.0546,0.0603,0.41,0.148,0.139,0.0846,0.0704,0.247,0.257,0.245,0.184,0.22
ChaGo-K-1,1.09,0.918,0.838,0.924,0.988,0.233,0.351,0.158,0.123,0.43,,0.342,0.232,0.243,0.526,0.476,0.433,0.348,0.461
NCI-H1651,0.493,0.471,0.483,0.554,0.578,0.155,0.16,0.0842,0.0807,0.153,0.159,0.168,0.15,0.126,0.395,0.334,0.265,0.341,0.293
SW 1573,0.451,0.406,0.362,0.336,0.464,0.156,0.0959,0.101,0.0586,0.189,0.124,0.121,0.0899,0.063,0.475,0.42,0.385,0.246,0.201
HCC-44,0.982,1.06,0.924,0.96,0.966,0.0863,0.0757,0.0829,0.0953,1.04,,0.75,0.456,0.351,,0.262,0.154,0.182,0.104
NCI-H460,0.199,0.176,0.147,0.239,0.148,0.0818,0.071,0.0104,0.0069,0.27,0.134,0.159,0.0506,0.0242,0.551,0.447,0.109,0.0647,0.301
SK-LU-1,0.387,0.417,0.464,0.369,0.408,0.111,,0.0994,0.0726,0.337,0.172,0.156,0.128,0.13,0.529,0.651,0.501,0.485,0.235
LOU-NH91,0.473,0.535,0.536,0.521,0.571,0.302,0.334,0.228,0.168,0.816,0.577,0.572,0.344,0.246,0.731,0.858,0.589,0.298,0.467
RERF-LC-KJ,1.1,1.11,1.04,1.12,1.07,0.269,0.225,0.241,0.229,0.726,0.537,0.304,0.228,0.188,0.465,0.452,0.466,0.386,0.209
NCI-H2126,0.344,0.333,0.395,0.372,0.361,0.245,0.336,0.237,0.245,0.89,0.634,0.62,0.468,0.4,0.411,0.331,0.314,0.287,0.483
SW 900,0.479,0.584,,,0.496,0.184,0.189,0.111,0.127,0.544,0.428,0.362,0.212,0.169,0.505,0.618,0.498,0.465,0.364
LU99A,0.439,0.409,0.389,0.376,0.417,0.335,0.353,0.24,0.162,0.228,0.164,0.141,0.138,0.121,0.905,0.786,0.738,0.586,0.671
BEN,0.415,0.495,0.506,0.483,0.503,,0.211,0.197,0.184,0.976,0.799,0.641,0.514,0.362,0.255,0.257,0.285,0.251,0.247
NCI-H1666,0.632,0.606,0.545,0.727,0.624,0.567,0.518,0.262,0.201,0.682,0.567,0.583,0.476,0.432,0.582,0.447,0.392,0.392,0.495

# — the supplement of paper PMC10307832
